Results published in US20260216336A1, “NEW PSORALEN COMPOUND” (NAGASAKI UNIVERSITY, priority 2022, published 2026).
Like-named read-outs stand apart in the source and are kept apart here.

Legend:
DNA [1] = conditions: background statement on commercially available reagent; cited from earlier work
DNA [2] = experiment: DNA crosslinking efficiency of psoralen reagents (general statements, no method given); type: biochemical; conditions: studies conducted by the inventors

Row | Structure (SMILES) | DNA crosslinking efficiency (DNA [1]) | DNA crosslinking efficiency (DNA [2])
1 | Cc1oc2c(C)c3oc(=O)cc(C)c3cc2c1COCCCCCCOP(OCCC#N)N(C(C)C)C(C)C (centres unmarked) [Psoralen C6 Phosphoramidite, 6-[4′-(Hydroxymethyl)-4,5′,8-trimethylpsoralen]-hexyl-1-O-(2-cyanoethyl)-(N,N-diisopropyl)-phosphoramidite] | favorable DNA crosslinking efficiency | 
2 | O=C(CCCOc1c2occc2cc2ccc(=O)oc12)ON1C(=O)CCC1=O [SPB, succinimidyl-[4-(psoralen-8-yloxy)]butyrate] |  | very low
